The values that follow come from patent publication US11396531B2, “Antimicrobial peptides comprising epsilon lysine residues” (priority 2016, dated 2022).

Converted amounts (≈) assume the structure as drawn. Read-outs that look alike come from different tables or passages of the source. No end group written: not given here.

The subject of series [1] is a number of micro-organisms. The conditions noted are these: cited from earlier work.
The subject of a further series is red blood cells. The conditions noted are these: cited from earlier work.
The next series has as its system P. aeruginosa. It is filed as cell-based, Pseudomonas aeruginosa. The conditions noted are these: P. aeruginosa (n = 22). The procedure: (§1) MIC of cationic polymers and polypeptide were tested in accordance with the Clinical and Laboratory Standards Institute (CLSI) guidelines against a panel of antibiotic-susceptible/-resistant bacteria, yeasts and fungal strains. Bacterial and yeast strains were cultured on tryptic soy agar (TSA) and Sabaroud dextrose agar (SDA) plates (Neogen Corporation, MI, USA) overnight respectively. Inocula in Mueller-Hinton broth (MHB) for bacteria and SD broth for C. albicans (Beckton Dickinson, MD, USA) were prepared at 0.5 McFarland. The suspensions were then diluted to a final concentration of 10^5 CFU/ml in a 96-well microtitre plate (SPL Life Sciences Co., Ltd, Korea). Polymers and polypeptides were added to the inoculum in 2-fold serial dilutions to give a range of concentrations from 2-1024 μg/ml. […] The antimicrobial activities were compared with topical antiseptic agents, BAK and CHX. A similar protocol was used to determine the MIC of εPL against antibiotic-resistant pathogens. MIC of the polymers and polypeptides against Fusarium strains was determined in full strength RPMI-1640 buffer. Fungal spores were recovered from a 5-day old culture on a potato dextrose agar and diluted to a concentration of 10^5 spores/ml in 0.9% saline solution. A further 50-fold dilution was done in RPMI-1640 buffer and 100 μl of the inoculum was added to 96 well plates containing an equal volume of test peptides at 2-fold serial dilutions. 200 μl of inoculum without any additives and buffer alone served as positive and negative controls, respectively. The plate was then incubated at 30° C. for 48 h. The absorbance value was measured at 600 nm as before and the lowest concentration of the peptide which inhibited 90% growth was reported. All MIC determinations were performed in duplicates.
MICs of polymers/antibiotics were determined using the microdilution method in 96 well microtitre plates (SPL Life Sciences Co., Ltd, Korea), following the guidelines of Clinical and Laboratory Standards Institute (CLSI) document M100-S18. […]

In the next series the test system is S. aureus. Put plainly: microbe, parasite or virus in culture. It is filed as cell-based, Staphylococcus aureus. As for the experimental part: as §1
(§2) MICs of polymers/antibiotics were determined using the microdilution method in 96 well microtitre plates (SPL Life Sciences Co., Ltd, Korea), following the guidelines of Clinical and Laboratory Standards Institute (CLSI) document M100-S18. Briefly, polymers (1-512 μg/ml) or antibiotics were dissolved in appropriate media (Mueller Hinton broth, MHB for bacteria; Sabaroud's Dextrose (SD) broth for yeasts and RPMI buffer for Fusarium strains) and 100 μl of this was then mixed with an equal volume of microbial inoculum (OD600=˜0.08) in the same media and shaken in a closed incubator.

The next series relates to K. pneumoniae. Kind of series: microbe, parasite or virus in culture. The series is classed as cell-based, Klebsiella pneumoniae. As for the experimental part: as §1, §2
The subject of the next series is E. coli. Kind of series: microbe, parasite or virus in culture. The series is classed as cell-based, Escherichia coli. As for the experimental part:
as §1, §2

A further series concerns A. baumannii. Kind of series: microbe, parasite or virus in culture. As for the experimental part: as §1, with “Korea).” for “Korea). Polymers and polypeptides were added to the inoculum in 2-fold serial dilutions to give a range of concentrations from 2-1024 μg/ml.”
as §2

Series [2] has as its system Carbapenam-resistant Enterobacter strains (CRE). Kind of series: microbe, parasite or virus in culture. As for the experimental part: as §1, with “Korea).” for “Korea). Polymers and polypeptides were added to the inoculum in 2-fold serial dilutions to give a range of concentrations from 2-1024 μg/ml.”
as §2

The subject of the next series is E. cloacae complex. Put plainly: microbe, parasite or virus in culture. The procedure:
as §1, with “Korea).” for “Korea). Polymers and polypeptides were added to the inoculum in 2-fold serial dilutions to give a range of concentrations from 2-1024 μg/ml.”
as §2

A further series has as its system MRSA. It is filed as cell-based, Staphylococcus aureus. The conditions noted are these: MRSA (n = 9). As for the experimental part:
as §1, §2

A further series has as its system C. albicans. The conditions noted are these: C. albicans (n = 5). The procedure: as §1, with “Korea).” for “Korea). Polymers and polypeptides were added to the inoculum in 2-fold serial dilutions to give a range of concentrations from 2-1024 μg/ml.”
as §2

Series [3] concerns Vancomycin-resistant Enterococcus (VRE). The procedure:
as §1, with “Korea).” for “Korea). Polymers and polypeptides were added to the inoculum in 2-fold serial dilutions to give a range of concentrations from 2-1024 μg/ml.”
as §2

For series [4], the system named is T-cell lymphomas (HuT78, MJ, HH) and B-cell lymphomas (Ly-4 and Ly-18). Put plainly: Anticancer properties of hypercharged peptides (MTS). The series is classed as cell-based, human. As to conditions: 62.5-500 μg/ml. As for the experimental part: The hyper-charged peptides were screened for their anticancer properties using cell lines derived from patients with various forms of cutaneous lymphomas, including T-cell lymphomas (HuT78, MJ, HH) and B-cell lymphomas (Ly-4 and Ly-18). The relative cytotoxicity of these peptides was also assessed in healthy primary peripheral blood lymphocyte (PBL) T-cells. Cytotoxicity was measured as the mitochondrial function by metabolic reduction of MTS.

Series [5] deals with primary human dermal fibroblasts (HDFs). Kind of series: MTS cytotoxicity assay. The procedure:
MTS ((3-(4,5-dimethylthiazol-2-yl)-5-(3-carboxymethoxyphenyl)-2-(4-sulfophenyl)-2H-tetrazolium)) assay and high content analysis (HCA) were performed to elucidate the effect of various polymers on metabolic activity and morphological parameters of cultured human dermal fibroblasts (hDF), respectively as described previously. The antineoplastic agent, nocodazole (5 μg/ml), served as the […] control whereas cells treated with PBS served as positive control. The average values from three independent triplicate experiments are reported. Cells were cultured in 96-well plates and scanned (16 randomly selected fields/well) using an automated microscope IN Cell Analyzer 2200 (GE Healthcare). The multi-parametric cytotoxicity bio-application module of the IN Cell Investigator software (GE Healthcare) was used in quantitative estimations and morphotypic analysis of acquired images, which were automatically converted into color-coded heatmaps using Spotrfire® software.
Human dermal fibroblast cells were seeded in 96-well plates (2×10^3 cells/well) and incubated for 24 h at 37° C. and 5% CO2. Cells were then treated with various concentrations of polymers or peptides (62.5 μg/ml-1 mg/ml. At the end of the treatment period (after 24 h), 20 or 50 μl of MTS tetrazolium solution was added into 96-well or 12-well plates and further incubated for 2 h at 37° C. Subsequently, the absorbance was measured at 490 nm using a microplate reader (Infinite M200 Pro, Tecan, Switzerland) and the relative cell viability was calculated. Each treatment was performed in two triplicates and reported.
The cytotoxicity of peptides and polymers were determined using CellTier 96® Aqueous One solution cell proliferation assay kit according to the manufacturer's instruction (Promega Corporation, Madison, Wis.). This assay evaluates mitochondrial function by measuring ability of viable cells to reduce MTS ((3-(4,5-dimethylthiazol-2-yl)-5-(3-carboxymethoxyphenyl)-2-(4-sulfophenyl)-2H-tetrazolium)) into a quantifiable […] formazan product. HDFs were seeded in 96-well plates (2×10^3 cells/well) and incubated for 24 h at 37° C. and 5% CO2. Cells were then treated with a concentrated stock solution of polymers (final concentration 62.5-2000 μg/ml in the well) or peptides (final concentration 4-1000 μg/ml in the well). After 24 h, 20 μl of MTS tetrazolium solution was added into 96-well well plates and further incubated for 2 h at 37° C. Subsequently, the absorbance was measured at 490 nm using a microplate reader (Infinite M200 Pro, Tecan, Switzerland) and the relative cell viability was calculated relative to untreated control (10 mM PBS, pH 7.0). Each treatment was performed in two triplicates and reported.
(Tetrazolium dyes change colour on reduction, which living cells bring about.)

Setting [6] is: at 5 × 10^5 CFU/mL, reference 5.
Setting [7] is: at 5 × 10^5 CFU/mL, reference 7.

“GIGAVLKVLTTGLPALISWIKRKRQQ [listing 1 of 2 here]”: the MIC result in series [1] (reference 9, result in words) is “Loss of peptide”. Besides, the Haemolytic activity result in the series on red blood cells (reference 9, result in words) is on record as “Loss of peptide”.
On to “GIGAVLKVLTTGLPALISWIKRKRQQ [listing 2 of 2 here]”, for which the “MIC (range against a number of micro-organisms)” value in series [1] (at 1 - 4 × 10^5 CFU/mL, reference 4) was 0.1 - 2 μM at 1 -. Moreover, the Haemolytic activity with red blood cells (at 2 μM, reference 4) is 100% at 2 μM.
Consider “GIGAVKKVLTTGKPALISWKKRKRQQ (not fully specified (residues 6, 13, 20); ends and bridges not checked; also: peptoid residue at 6, 13, 20 (identity not given here))”, for which, in series [1] (at 1 × 10^6 CFU/mL, reference 6), the “MIC (range against a number of micro-organisms)” value is recorded as 2 - 8 μM at. Also, in the series on red blood cells (at 100 μM, reference 6), the Haemolytic activity was <10% at 100 μM.
For “GIGAVLKVLTTGLPALISWIKRKRQQ-NH2 [Unmodified parent peptide: GIGAVLKVLTTGLPALISWIKRKRQQ-NH2]”, the “MIC (range against a number of micro-organisms)” value in [1] (setting [6]) is given as 0.3 - 20 μM at. Further, the Haemolytic activity with red blood cells (at <10 μM, reference 5) is reported as 100% at <10 μM.
Regarding “GIGAVLKVLTTGLCALISWIKRKRQQ (ends and bridges not checked)”, the Haemolytic activity with red blood cells (at 2.5 μM, reference 8) is reported as 50% at 2.5 μM.
Consider `N=C(N)NCCC[C@H](NC(=O)[C@H](N)CCCCNC(=O)[C@H](CCCNC(=N)N)NC(=O)[C@H](N)CCCCNC(=O)[C@H](CCCNC(=N)N)NC(=O)[C@H](N)CCCCNC(=O)[C@H](CCCNC(=N)N)NC(=O)[C@H](N)CCCCNC(=O)[C@H](CCCNC(=N)N)NC(=O)[C@H](N)CCCCNC(=O)[C@H](CCCNC(=N)N)NC(=O)[C@H](N)CCCCN)C(=O)O` [HC6, kRkRkRkRkRkR], for which the MIC in the series with P. aeruginosa is 32 to 64 µg/mL; in the series with S. aureus (S. aureus (n = 6)) it was 32 to 64 µg/mL; in the series with K. pneumoniae (K. pneumonia (n = 4)), 32 to 128 µg/mL; against E. coli (E. coli (n = 3)), 16 µg/mL (≈ 9.28 µM); with A. baumannii (A. baumanii (n = 3)) it was 16 to 64 µg/mL; in series [2] (CRE strains (n = 4)) it was 64 to 128 µg/mL. Also, the MIC in the series on E. cloacae complex (E. clocae complex (n = 4)) is 64 to 128 µg/mL; against MRSA, 16 to 32 µg/mL; with C. albicans it was 16 to 32 µg/mL; in series [3] (VRE (n = 3)) it was 16 µg/mL (≈ 9.28 µM). Moreover, in [4], the “cell killing in lymphoma cell lines” value is listed as “varying degrees of cell killing”.
Consider “CGIGAVLKVLTTGLPALISWIKRKRQQC [Unmodified parent peptide: CGIGAVLKVLTTGLPALISWIKRKRQQC (lin]”, for which the “MIC (range against a number of micro-organisms)” value in [1] (setting [7]) is on record as 2 - 32 μM at. In the series on red blood cells (at 10 μM, reference 7), the Haemolytic activity entry is given as “Complete”.
On to `NC[C@H]1O[C@H](O[C@H]2[C@H](O)[C@@H](O[C@H]3O[C@H](CO)[C@@H](O)[C@H](N)[C@H]3O)[C@H](N)C[C@@H]2N)[C@H](N)C[C@@H]1O` [Tobramycin], for which the MIC in the series with S. aureus (Staphylococcus aureus, S. aureus (n = 9), read-out: MIC) was 500 to 1000 µg/mL (≈ 1070 to 2140 µM); with K. pneumoniae (Klebsiella pneumoniae, K. pneumoniae (n = 8), range over strains, read-out: MIC), 195 to 100000 µg/mL (≈ 417 to 214000 µM); with E. coli (Escherichia coli, E. coli (n = 8), range over strains, read-out: MIC), 195 to 100000 µg/mL (≈ 417 to 214000 µM); with A. baumannii (Acinetobacter baumannii), 800 to 50000 µg/mL (≈ 1710 to 107000 µM); in [2] (Enterobacter), 800 to 50000 µg/mL (≈ 1710 to 107000 µM); in the series with E. cloacae complex (Enterobacter cloacae), 1560 to 100000 µg/mL (≈ 3340 to 214000 µM).
`CC[C@H](C)[C@H](NC(=O)[C@H](CO)NC(=O)[C@H](CCCCN)NC(=O)[C@H](CC(C)C)NC(=O)[C@H](CCCCN)NC(=O)[C@@H](N)CC(C)C)C(=O)N[C@H](C(=O)N[C@@H](CO)C(=O)N[C@@H](Cc1c[nH]c2ccccc12)C(=O)N[C@@H](C)C(=O)N[C@@H](CCCCN)C(=O)N[C@@H](CCCCN)C(=O)N[C@H](C(=O)N[C@@H](CC(C)C)C(N)=O)C(C)C)C(C)C` [Mastoparan B, LKLKSIVSWAKKVL]: the MIC90 entry in the series with A. baumannii (A. baumanii (n = 10), 90% of strains susceptible, Table 7) is listed as “(MIC90 = 2) μg/ml”; in series [3] (VRE (n = 21), 90% of strains susceptible, Table 7), “(MIC90 = 4)^1 μg/ml”. Moreover, in [2] (CRE (n = 19), 50% of strains susceptible, Table 7), the MIC50 result is on record as “(MIC50 = 4) μg/ml”. In series [5] (MTS assay, primary human fibroblasts), the “Peptide concentration required to impart cytotoxic effect” value was “exceeded 62.5 μg/ml”. The “Cytotoxicity for HDFs” value in [5] (Table 7) worked out at 125 µg/mL.
For the compound “GIGAVLKVLTTGLPALISWIKRKRQQ-NH2 [Modified peptide: GIGAVLKVLTTGLPALISWIKRKRQQ-NH2]”, in [1] (setting [6]), the “MIC (range against a number of micro-organisms)” value is 0.8 - 12 μM at. The Haemolytic activity in the series with red blood cells (at 50 μM, reference 5) is reported as <25% at 50 μM.
For the compound “CGIGAVLKVLTTGLPALISWIKRKRQQC [Modified peptide: CGIGAVLKVLTTGLPALISWIKRKRQQC (cyclised)] (also: cyclised, mode not given here)”, in series [1] (setting [7]), the “MIC (range against a number of micro-organisms)” value was 0.8 - 10 μM at. In the series with red blood cells (at 10 μM, reference 7), the Haemolytic activity is on record as ~50% at 10 μM.
